Data: PubChem BioAssay AID2060506 (Molecular Pharmacology Branch, DTP, NCI, 2025)

Tested on: 598228-144-R-J1-PDC complex spheroid viability
Assay: Anticancer human tumor 598228-144-R-J1-PDC patient-derived serous endometrial adenocarcinoma cell line growth inhibition [GQUAD]
Details: for IC50: curve of first compound; for viability, T/C: stronger effect = lower value
Summary of the method: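 Viability of tumor cells grown as complex spheroids with endothelial and stromal cells, exposed to drug combinations. Top concentration at or near clinical Cmax (else 10 microM), diluted in half-log increments.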

[1] = second compound 0.0316 µM, first compound 0.0316 µM
[2] = second compound 0.0316 µM, first compound 0.1 µM
[3] = second compound 0.0316 µM, first compound 0.316 µM
[4] = second compound 0.0316 µM, first compound 1 µM
[5] = second compound 0.0316 µM, first compound 3.16 µM
[6] = second compound 0.0316 µM, first compound 10 µM
[7] = second compound 0.1 µM, first compound 0.0316 µM
[8] = second compound 0.1 µM, first compound 0.1 µM
[9] = second compound 0.1 µM, first compound 0.316 µM
[10] = second compound 0.1 µM, first compound 1 µM
[11] = second compound 0.1 µM, first compound 3.16 µM
[12] = second compound 0.1 µM, first compound 10 µM
[13] = second compound 0.316 µM, first compound 0.0316 µM
[14] = second compound 0.316 µM, first compound 0.1 µM
[15] = second compound 0.316 µM, first compound 0.316 µM
[16] = second compound 0.316 µM, first compound 1 µM
[17] = second compound 0.316 µM, first compound 3.16 µM
[18] = second compound 0.316 µM, first compound 10 µM
[19] = second compound 1 µM, first compound 0.0316 µM
[20] = second compound 1 µM, first compound 0.1 µM
[21] = second compound 1 µM, first compound 0.316 µM
[22] = second compound 1 µM, first compound 1 µM
[23] = second compound 1 µM, first compound 3.16 µM
[24] = second compound 1 µM, first compound 10 µM
[25] = second compound 3.16 µM, first compound 0.0316 µM
[26] = second compound 3.16 µM, first compound 0.1 µM
[27] = second compound 3.16 µM, first compound 0.316 µM
[28] = second compound 3.16 µM, first compound 1 µM
[29] = second compound 3.16 µM, first compound 3.16 µM
[30] = second compound 3.16 µM, first compound 10 µM
[31] = second compound 10 µM, first compound 0.0316 µM
[32] = second compound 10 µM, first compound 0.1 µM
[33] = second compound 10 µM, first compound 0.316 µM
[34] = second compound 10 µM, first compound 1 µM
[35] = second compound 10 µM, first compound 3.16 µM
[36] = second compound 10 µM, first compound 10 µM
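Further: spheroids exposed to the agents for one week before reading.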
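Wherever viability, T/C is given: percent of vehicle DMSO control viability so 100% = untreated growth.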

## CC1COCCN1c1cc(C2(O)CC3CCC(C2)O3)c2cnn(-c3ccn[nH]3)c2n1 (stereo not drawn) + Cc1[nH]c2ccc(F)cc2c1-c1nc2c3cccnc3c3ncccc3c2[nH]1
Second compound 0.0316 µM
  IC50: 144 nM
Second compound 0.1 µM
  IC50: 95 nM
Second compound 0.316 µM
  IC50: < 31.6 nM
Second compound 1 µM
  IC50: < 31.6 nM
Second compound 3.16 µM
  IC50: < 31.6 nM
Second compound 10 µM
  IC50: < 31.6 nM
[1]
  viability, T/C: 68%
[2]
  viability, T/C: 48%
[3]
  viability, T/C: 39%
[4]
  viability, T/C: 40.7%
[5]
  viability, T/C: 28%
[6]
  viability, T/C: 14%
[7]
  viability, T/C: 61.3%
[8]
  viability, T/C: 40.1%
[9]
  viability, T/C: 46.8%
[10]
  viability, T/C: 34.9%
[11]
  viability, T/C: 31.5%
[12]
  viability, T/C: 17.4%
[13]
  viability, T/C: 48.8%
[14]
  viability, T/C: 44.1%
[15]
  viability, T/C: 44.2%
[16]
  viability, T/C: 37.6%
[17]
  viability, T/C: 28.3%
[18]
  viability, T/C: 12.6%
[19]
  viability, T/C: 48.9%
[20]
  viability, T/C: 37.1%
[21]
  viability, T/C: 38%
[22]
  viability, T/C: 27.4%
[23]
  viability, T/C: 19.9%
[24]
  viability, T/C: 12.7%
[25]
  viability, T/C: 36.8%
[26]
  viability, T/C: 38.8%
[27]
  viability, T/C: 30.3%
[28]
  viability, T/C: 26.7%
[29]
  viability, T/C: 18.3%
[30]
  viability, T/C: 8.63%
[31]
  viability, T/C: 41.4%
[32]
  viability, T/C: 37.4%
[33]
  viability, T/C: 31.6%
[34]
  viability, T/C: 29.7%
[35]
  viability, T/C: 25.4%
[36]
  viability, T/C: 12.1%

## COc1ccc([C@@H](O)c2cc(-c3ncnc4cc(N5CCOCC5)ccc34)c(F)cc2Cl)nn1 + Cc1[nH]c2ccc(F)cc2c1-c1nc2c3cccnc3c3ncccc3c2[nH]1
Second compound 0.0316 µM
  IC50: 3140 nM
Second compound 0.1 µM
  IC50: 1220 nM
Second compound 0.316 µM
  IC50: 1290 nM
Second compound 1 µM
  IC50: 222 nM
Second compound 3.16 µM
  IC50: < 31.6 nM
Second compound 10 µM
  IC50: 112 nM
[1]
  viability, T/C: 96.8%
[2]
  viability, T/C: 114%
[3]
  viability, T/C: 87.8%
[4]
  viability, T/C: 76.7%
[5]
  viability, T/C: 50.4%
[6]
  viability, T/C: 29.1%
[7]
  viability, T/C: 112%
[8]
  viability, T/C: 96%
[9]
  viability, T/C: 62.6%
[10]
  viability, T/C: 59.5%
[11]
  viability, T/C: 35%
[12]
  viability, T/C: 26%
[13]
  viability, T/C: 82.2%
[14]
  viability, T/C: 71.5%
[15]
  viability, T/C: 72.8%
[16]
  viability, T/C: 50.5%
[17]
  viability, T/C: 40.8%
[18]
  viability, T/C: 32.4%
[19]
  viability, T/C: 64.2%
[20]
  viability, T/C: 67.4%
[21]
  viability, T/C: 37.4%
[22]
  viability, T/C: 36.9%
[23]
  viability, T/C: 27.4%
[24]
  viability, T/C: 18.8%
[25]
  viability, T/C: 48.3%
[26]
  viability, T/C: 44.9%
[27]
  viability, T/C: 34.1%
[28]
  viability, T/C: 21.1%
[29]
  viability, T/C: 18.9%
[30]
  viability, T/C: 15.2%
[31]
  viability, T/C: 61.5%
[32]
  viability, T/C: 49.6%
[33]
  viability, T/C: 43.9%
[34]
  viability, T/C: 31.1%
[35]
  viability, T/C: 25.6%
[36]
  viability, T/C: 22.5%

## Cn1ncnc1[C@H]1c2n[nH]c(=O)c3cc(F)cc(c23)N[C@@H]1c1ccc(F)cc1 + Cc1[nH]c2ccc(F)cc2c1-c1nc2c3cccnc3c3ncccc3c2[nH]1
Second compound 0.0316 µM
  IC50: > 316 nM
Second compound 0.1 µM
  IC50: > 316 nM
Second compound 0.316 µM
  IC50: > 316 nM
Second compound 1 µM
  IC50: > 316 nM
Second compound 3.16 µM
  IC50: < 0.999 nM
Second compound 10 µM
  IC50: > 316 nM
Second compound 0.0316 µM, first compound 0.000999 µM
  viability, T/C: 125%
Second compound 0.0316 µM, first compound 0.00316 µM
  viability, T/C: 86.2%
Second compound 0.0316 µM, first compound 0.00999 µM
  viability, T/C: 106%
[1]
  viability, T/C: 71.6%
Second compound 0.0316 µM, first compound 0.0999 µM
  viability, T/C: 80.8%
[3]
  viability, T/C: 83.3%
Second compound 0.1 µM, first compound 0.000999 µM
  viability, T/C: 103%
Second compound 0.1 µM, first compound 0.00316 µM
  viability, T/C: 99%
Second compound 0.1 µM, first compound 0.00999 µM
  viability, T/C: 78.8%
[7]
  viability, T/C: 70.6%
Second compound 0.1 µM, first compound 0.0999 µM
  viability, T/C: 93.8%
[9]
  viability, T/C: 73.3%
Second compound 0.316 µM, first compound 0.000999 µM
  viability, T/C: 78.6%
Second compound 0.316 µM, first compound 0.00316 µM
  viability, T/C: 79.3%
Second compound 0.316 µM, first compound 0.00999 µM
  viability, T/C: 76.6%
[13]
  viability, T/C: 72%
Second compound 0.316 µM, first compound 0.0999 µM
  viability, T/C: 69.7%
[15]
  viability, T/C: 60.4%
Second compound 1 µM, first compound 0.000999 µM
  viability, T/C: 63.9%
Second compound 1 µM, first compound 0.00316 µM
  viability, T/C: 59.2%
Second compound 1 µM, first compound 0.00999 µM
  viability, T/C: 66.2%
[19]
  viability, T/C: 56.7%
Second compound 1 µM, first compound 0.0999 µM
  viability, T/C: 50.9%
[21]
  viability, T/C: 57.7%
Second compound 3.16 µM, first compound 0.000999 µM
  viability, T/C: 33.1%
Second compound 3.16 µM, first compound 0.00316 µM
  viability, T/C: 43.8%
Second compound 3.16 µM, first compound 0.00999 µM
  viability, T/C: 51.1%
[25]
  viability, T/C: 37.9%
Second compound 3.16 µM, first compound 0.0999 µM
  viability, T/C: 39.6%
[27]
  viability, T/C: 40.3%
Second compound 10 µM, first compound 0.000999 µM
  viability, T/C: 64.3%
Second compound 10 µM, first compound 0.00316 µM
  viability, T/C: 58.9%
Second compound 10 µM, first compound 0.00999 µM
  viability, T/C: 64.6%
[31]
  viability, T/C: 53%
Second compound 10 µM, first compound 0.0999 µM
  viability, T/C: 55.6%
[33]
  viability, T/C: 51.8%

## O=C(c1cc(Cc2n[nH]c(=O)c3ccccc23)ccc1F)N1CCN(C(=O)C2CC2)CC1 + Cc1[nH]c2ccc(F)cc2c1-c1nc2c3cccnc3c3ncccc3c2[nH]1
Second compound 0.0316 µM
  IC50: > 10000 nM
Second compound 0.1 µM
  IC50: > 10000 nM
Second compound 0.316 µM
  IC50: > 10000 nM
Second compound 1 µM
  IC50: > 10000 nM
Second compound 3.16 µM
  IC50: < 31.6 nM
Second compound 10 µM
  IC50: > 10000 nM
[1]
  viability, T/C: 110%
[2]
  viability, T/C: 95.2%
[3]
  viability, T/C: 92.1%
[4]
  viability, T/C: 105%
[5]
  viability, T/C: 96.4%
[6]
  viability, T/C: 97.5%
[7]
  viability, T/C: 91.4%
[8]
  viability, T/C: 107%
[9]
  viability, T/C: 87.8%
[10]
  viability, T/C: 88.3%
[11]
  viability, T/C: 85.8%
[12]
  viability, T/C: 73.8%
[13]
  viability, T/C: 72.9%
[14]
  viability, T/C: 90.7%
[15]
  viability, T/C: 78%
[16]
  viability, T/C: 79%
[17]
  viability, T/C: 68.7%
[18]
  viability, T/C: 71%
[19]
  viability, T/C: 56.1%
[20]
  viability, T/C: 66.6%
[21]
  viability, T/C: 64.3%
[22]
  viability, T/C: 67.1%
[23]
  viability, T/C: 60.1%
[24]
  viability, T/C: 58.1%
[25]
  viability, T/C: 40.8%
[26]
  viability, T/C: 44.4%
[27]
  viability, T/C: 38.6%
[28]
  viability, T/C: 42%
[29]
  viability, T/C: 50.8%
[30]
  viability, T/C: 45.4%
[31]
  viability, T/C: 70.9%
[32]
  viability, T/C: 57.8%
[33]
  viability, T/C: 65.9%
[34]
  viability, T/C: 61.5%
[35]
  viability, T/C: 49.6%
[36]
  viability, T/C: 61.6%
